In patent publication US20230398130A1, “METHODS AND COMPOSITIONS FOR DIFFERENTIATING STEM CELLS” (Massachusetts Institute of Technology, priority 2020, published 2023):

Legend:
ISC-enriched organoids [1] = assay: Primary screen, 384-well 2.5-D organoid differentiation (ENR+CD, 6 days): basal lysozyme secretion (LYZ.NS); type: cell-based, murine; settings: primary screen; for Dose.FC.LYZ.NS: FC vs plate median; for Z.LYZ.NS: standard z score; for SSMD.LYZ.NS: strictly standardized mean difference
Text: (§1) High-throughput screening.

ISC-enriched organoids [2] = assay: Primary screen, 384-well 2.5-D organoid differentiation (ENR+CD, 6 days): carbachol-induced lysozyme secretion (LYZ.S); type: cell-based, murine; settings: primary screen; for Dose.FC.LYZ.S: FC vs plate median; for Z.LYZ.S: standard z score; for SSMD.LYZ.S: strictly standardized mean difference
Text: as §1

ISC-enriched organoids [3] = assay: Primary screen, 384-well 2.5-D organoid differentiation (ENR+CD, 6 days, Target Selective Inhibitor Library, vs whole-plate median): ATP (CellTiter-Glo 3D, CTG); settings: primary screen; for Dose.FC.CTG: FC vs plate median; for Z.CTG: standard z score; for SSMD.CTG: strictly standardized mean difference
[4] = 1st of the 4 dose lines of the treatment (dose not given)
[5] = 2nd of the 4 dose lines of the treatment (dose not given)
[6] = 3rd of the 4 dose lines of the treatment (dose not given)
[7] = 4th of the 4 dose lines of the treatment (dose not given)

Row | Substance | Dose.FC.LYZ.NS (ISC-enriched organoids [1]; Dose 0.08 uM) [log 2 fold change] | Z.LYZ.NS (ISC-enriched organoids [1]; Dose 0.08 uM) | Dose.FC.LYZ.NS (ISC-enriched organoids [1]; Dose 0.40 uM) [log 2 fold change] | Z.LYZ.NS (ISC-enriched organoids [1]; Dose 0.40 uM) | Dose.FC.LYZ.NS (ISC-enriched organoids [1]; Dose 2.00 uM) [log 2 fold change] | Z.LYZ.NS (ISC-enriched organoids [1]; Dose 2.00 uM) | Dose.FC.LYZ.NS (ISC-enriched organoids [1]; Dose 10.00 uM) [log 2 fold change] | Z.LYZ.NS (ISC-enriched organoids [1]; Dose 10.00 uM) | SSMD.LYZ.NS (ISC-enriched organoids [1]; [4]) | SSMD.LYZ.NS (ISC-enriched organoids [1]; [5]) | SSMD.LYZ.NS (ISC-enriched organoids [1]; [6]) | SSMD.LYZ.NS (ISC-enriched organoids [1]; [7]) | Dose.FC.LYZ.S (ISC-enriched organoids [2]; Dose 0.08 uM) [log 2 fold change] | Dose.FC.LYZ.S (ISC-enriched organoids [2]; Dose 0.40 uM) [log 2 fold change] | Dose.FC.LYZ.S (ISC-enriched organoids [2]; Dose 2.00 uM) [log 2 fold change] | Dose.FC.LYZ.S (ISC-enriched organoids [2]; Dose 10.00 uM) [log 2 fold change] | Z.LYZ.S (ISC-enriched organoids [2]; [4]) | Z.LYZ.S (ISC-enriched organoids [2]; [5]) | Z.LYZ.S (ISC-enriched organoids [2]; [6]) | Z.LYZ.S (ISC-enriched organoids [2]; [7]) | further results
1 | HA14-1 | 0.121 | 1.052 | 0.137 | 1.195 | 0.154 | 1.345 | 0.132 | 1.151 | 1.056 | 1.013 | 1.483 | 0.640 | 0.190 | 0.316 | 0.170 | 0.149 | 1.231 | 2.041 | 1.099 | 0.964 | SSMD.LYZ.S (ISC-enriched organoids [2]; [4]): 1.264; SSMD.LYZ.S (ISC-enriched organoids [2]; [5]): 1.052; SSMD.LYZ.S (ISC-enriched organoids [2]; [6]): 1.202; SSMD.LYZ.S (ISC-enriched organoids [2]; [7]): 0.449; Dose.FC.CTG (ISC-enriched organoids [3]; Dose 0.08 uM): 0.534 log 2 fold change; Z.CTG (ISC-enriched organoids [3]; Dose 0.08 uM): 1.276; Dose.FC.CTG (ISC-enriched organoids [3]; Dose 0.40 uM): 0.526 log 2 fold change; Z.CTG (ISC-enriched organoids [3]; Dose 0.40 uM): 1.255; Dose.FC.CTG (ISC-enriched organoids [3]; Dose 2.00 uM): 0.554 log 2 fold change; Z.CTG (ISC-enriched organoids [3]; Dose 2.00 uM): 1.323; Dose.FC.CTG (ISC-enriched organoids [3]; Dose 10.00 uM): 0.388 log 2 fold change; Z.CTG (ISC-enriched organoids [3]; Dose 10.00 uM): 0.926; SSMD.CTG (ISC-enriched organoids [3]; [4]): 1.389; SSMD.CTG (ISC-enriched organoids [3]; [5]): 1.961; SSMD.CTG (ISC-enriched organoids [3]; [6]): 2.075; SSMD.CTG (ISC-enriched organoids [3]; [7]): 1.289
2 | I-BET151 (GSK1210151A) | −0.116 | −1.010 | −0.248 | −2.159 | −0.299 | −2.601 | −0.284 | −2.473 | −0.856 | −1.677 | −1.629 | −1.342 | −0.242 | −0.344 | −0.416 | −0.408 | −1.563 | −2.225 | −2.687 | −2.641 | SSMD.LYZ.S (ISC-enriched organoids [2]; [4]): −1.087; SSMD.LYZ.S (ISC-enriched organoids [2]; [5]): −1.784; SSMD.LYZ.S (ISC-enriched organoids [2]; [6]): −1.815; SSMD.LYZ.S (ISC-enriched organoids [2]; [7]): −1.694; Dose.FC.CTG (ISC-enriched organoids [3]; Dose 0.08 uM): −0.016 log 2 fold change; Z.CTG (ISC-enriched organoids [3]; Dose 0.08 uM): −0.039; Dose.FC.CTG (ISC-enriched organoids [3]; Dose 0.40 uM): −0.174 log 2 fold change; Z.CTG (ISC-enriched organoids [3]; Dose 0.40 uM): −0.415; Dose.FC.CTG (ISC-enriched organoids [3]; Dose 2.00 uM): −0.502 log 2 fold change; Z.CTG (ISC-enriched organoids [3]; Dose 2.00 uM): −1.200; Dose.FC.CTG (ISC-enriched organoids [3]; Dose 10.00 uM): −0.935 log 2 fold change; Z.CTG (ISC-enriched organoids [3]; Dose 10.00 uM): −2.233; SSMD.CTG (ISC-enriched organoids [3]; [4]): −0.045; SSMD.CTG (ISC-enriched organoids [3]; [5]): −0.433; SSMD.CTG (ISC-enriched organoids [3]; [6]): −1.788; SSMD.CTG (ISC-enriched organoids [3]; [7]): −2.304
3 | Ifenprodil Tartrate | 0.056 | 0.492 | −0.019 | −0.161 | 0.123 | 1.068 | −0.219 | −1.909 | 0.372 | −0.116 | 0.504 | −1.176 | 0.050 | 0.017 | −0.023 | −0.301 | 0.325 | 0.107 | −0.151 | −1.947 | SSMD.LYZ.S (ISC-enriched organoids [2]; [4]): 0.255; SSMD.LYZ.S (ISC-enriched organoids [2]; [5]): 0.091; SSMD.LYZ.S (ISC-enriched organoids [2]; [6]): −0.103; SSMD.LYZ.S (ISC-enriched organoids [2]; [7]): −1.030; Dose.FC.CTG (ISC-enriched organoids [3]; Dose 0.08 uM): 0.102 log 2 fold change; Z.CTG (ISC-enriched organoids [3]; Dose 0.08 uM): 0.243; Dose.FC.CTG (ISC-enriched organoids [3]; Dose 0.40 uM): 0.111 log 2 fold change; Z.CTG (ISC-enriched organoids [3]; Dose 0.40 uM): 0.265; Dose.FC.CTG (ISC-enriched organoids [3]; Dose 2.00 uM): −0.003 log 2 fold change; Z.CTG (ISC-enriched organoids [3]; Dose 2.00 uM): −0.008; Dose.FC.CTG (ISC-enriched organoids [3]; Dose 10.00 uM): −1.034 log 2 fold change; Z.CTG (ISC-enriched organoids [3]; Dose 10.00 uM): −2.471; SSMD.CTG (ISC-enriched organoids [3]; [4]): 0.218; SSMD.CTG (ISC-enriched organoids [3]; [5]): 0.279; SSMD.CTG (ISC-enriched organoids [3]; [6]): −0.009; SSMD.CTG (ISC-enriched organoids [3]; [7]): −1.277
4 | KX2-391 | −0.283 | −2.468 | −0.292 | −2.546 | −0.251 | −2.188 | −0.286 | −2.494 | −2.177 | −1.855 | −1.701 | −2.061 | −0.396 | −0.380 | −0.424 | −0.419 | −2.561 | −2.455 | −2.741 | −2.709 | SSMD.LYZ.S (ISC-enriched organoids [2]; [4]): −2.252; SSMD.LYZ.S (ISC-enriched organoids [2]; [5]): −1.641; SSMD.LYZ.S (ISC-enriched organoids [2]; [6]): −1.898; SSMD.LYZ.S (ISC-enriched organoids [2]; [7]): −2.140; Dose.FC.CTG (ISC-enriched organoids [3]; Dose 0.08 uM): −0.752 log 2 fold change; Z.CTG (ISC-enriched organoids [3]; Dose 0.08 uM): −1.796; Dose.FC.CTG (ISC-enriched organoids [3]; Dose 0.40 uM): −1.251 log 2 fold change; Z.CTG (ISC-enriched organoids [3]; Dose 0.40 uM): −2.989; Dose.FC.CTG (ISC-enriched organoids [3]; Dose 2.00 uM): −1.983 log 2 fold change; Z.CTG (ISC-enriched organoids [3]; Dose 2.00 uM): −4.737; Dose.FC.CTG (ISC-enriched organoids [3]; Dose 10.00 uM): −1.414 log 2 fold change; Z.CTG (ISC-enriched organoids [3]; Dose 10.00 uM): −3.377; SSMD.CTG (ISC-enriched organoids [3]; [4]): −2.473; SSMD.CTG (ISC-enriched organoids [3]; [5]): −2.845; SSMD.CTG (ISC-enriched organoids [3]; [6]): −2.822; SSMD.CTG (ISC-enriched organoids [3]; [7]): −1.255
5 | Maraviroc | 0.047 | 0.411 | 0.041 | 0.358 | 0.031 | 0.269 | 0.087 | 0.759 | 0.274 | 0.365 | 0.225 | 0.547 | 0.054 | 0.195 | 0.005 | 0.077 | 0.350 | 1.262 | 0.034 | 0.495 | SSMD.LYZ.S (ISC-enriched organoids [2]; [4]): 0.262; SSMD.LYZ.S (ISC-enriched organoids [2]; [5]): 0.754; SSMD.LYZ.S (ISC-enriched organoids [2]; [6]): 0.028; SSMD.LYZ.S (ISC-enriched organoids [2]; [7]): 0.400; Dose.FC.CTG (ISC-enriched organoids [3]; Dose 0.08 uM): −0.084 log 2 fold change; Z.CTG (ISC-enriched organoids [3]; Dose 0.08 uM): −0.201; Dose.FC.CTG (ISC-enriched organoids [3]; Dose 0.40 uM): 0.079 log 2 fold change; Z.CTG (ISC-enriched organoids [3]; Dose 0.40 uM): 0.188; Dose.FC.CTG (ISC-enriched organoids [3]; Dose 2.00 uM): −0.009 log 2 fold change; Z.CTG (ISC-enriched organoids [3]; Dose 2.00 uM): −0.022; Dose.FC.CTG (ISC-enriched organoids [3]; Dose 10.00 uM): 0.139 log 2 fold change; Z.CTG (ISC-enriched organoids [3]; Dose 10.00 uM): 0.331; SSMD.CTG (ISC-enriched organoids [3]; [4]): −0.294; SSMD.CTG (ISC-enriched organoids [3]; [5]): 0.187; SSMD.CTG (ISC-enriched organoids [3]; [6]): −0.030; SSMD.CTG (ISC-enriched organoids [3]; [7]): 0.270
